This is an account of results in ChEMBL document CHEMBL1201862, “PubChem BioAssay data set” (2004).

Among the test systems are M14; SF-268; SNB-19; HOP-92; SK-MEL-28; SK-MEL-5; Malme-3M; HT-29; OVCAR-4; MCF7; HCT-116; SR; K562; ACHN; U-251; UACC-257; NCI-H226; NCI-H23; NCI-H522; SN12C.
What all share (experiment): growth of human tumour cells (NCI), 48 h

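How tested: cells in 96-well plates exposed to compound for 48 hours at five concentrations. GI50 is the concentration that inhibits growth by half.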 Calls of active or inactive are those of the source. No stated cut-off is given here; in the data, active = GI50 up to about 1.1 µM and inactive = higher.

For the compound `Cc1c(-c2ccccc2)c(C#N)c2nnn(-c3ccc(Cl)cc3)c(=O)n12`, the GI50 is 5.08 µM (inactive) in the assay on M14; 32.6 µM (inactive) in the assay with SF-268; > 100 µM (inactive) in the assay with SNB-19; > 100 µM (inactive) in the assay with HOP-92; > 100 µM (inactive) with SK-MEL-28; 1.14 µM (inactive) with SK-MEL-5. The GI50 in the assay on Malme-3M is 81.3 µM (inactive); in the assay on HT-29, 15.8 µM (inactive); with OVCAR-4, 25.8 µM (inactive); in the assay with MCF7, 7.59 µM (inactive); in the assay on HCT-116, 12.8 µM (inactive); with SR, 8.53 µM (inactive). Further, the GI50 is 0.668 µM (active) with K562; 4.26 µM (inactive) in the assay with ACHN; 13.8 µM (inactive) in the assay with U-251; 35.8 µM (inactive) with UACC-257; 66.7 µM (inactive) in the assay with NCI-H226; 37 µM (inactive) in the assay on NCI-H23. Further, the GI50 with NCI-H522 is 10.9 µM (inactive); in the assay on SN12C, 35.2 µM (inactive).

As for `C/N=C/N(C)c1c2ccccc2nc2ccccc12`, the GI50 was > 100 µM (inactive) in the assay on M14; > 100 µM (inactive) with SF-268; > 100 µM (inactive) in the assay on SNB-19; 64.7 µM (inactive) in the assay with HOP-92; > 100 µM (inactive) in the assay on SK-MEL-28; > 100 µM (inactive) with SK-MEL-5. Also, the GI50 in the assay on Malme-3M, in the assay with HT-29, in the assay with OVCAR-4, in the assay on MCF7, with HCT-116 and with SR was > 100 µM (inactive) throughout. In addition, the GI50 in the assay with K562, in the assay with ACHN, in the assay on U-251, with UACC-257, in the assay on NCI-H226 and with NCI-H23 was > 100 µM (inactive) throughout. The GI50 with NCI-H522 and in the assay on SN12C was > 100 µM (inactive) throughout.

With `BrC1(c2ccccc2)C[n+]2c(-c3ccccc3)cc(-c3ccccc3)cc2-c2ccccc21` (stereo not given), the GI50 is 0.499 µM (active) with M14; 0.409 µM (active) in the assay on SF-268; 0.551 µM (active) with SNB-19; 0.664 µM (active) in the assay with HOP-92; 0.92 µM (active) with SK-MEL-28; 0.197 µM (active) in the assay with SK-MEL-5. Also, the GI50 in the assay with Malme-3M is 0.441 µM (active); in the assay on HT-29, 0.34 µM (active); in the assay on OVCAR-4, 0.977 µM (active); with MCF7, 0.184 µM (active); with HCT-116 it was 0.365 µM (active); in the assay with SR, 0.611 µM (active). Further, the GI50 is 0.159 µM (active) in the assay with K562; 1.42 µM (inactive) in the assay on ACHN; 0.226 µM (active) in the assay with U-251; 0.233 µM (active) in the assay with UACC-257; 0.659 µM (active) in the assay on NCI-H226; 1 µM (active) with NCI-H23. The values for the GI50 with NCI-H522 and with SN12C were 0.384 µM (active) and 3.88 µM (inactive), respectively.

Consider `CCOC1CN=C(Nc2cccc3ccccc23)S1` (stereo not given), for which the GI50 in the assay on M14, in the assay with SF-268, in the assay on SNB-19, in the assay on HOP-92, with SK-MEL-28 and in the assay with SK-MEL-5 was > 10 µM (inactive) throughout. Also, the GI50 with Malme-3M, in the assay with HT-29, with OVCAR-4, in the assay on MCF7, in the assay with HCT-116 and in the assay with SR was > 10 µM (inactive) each time. For the same compound, the GI50 in the assay with K562, in the assay with ACHN, in the assay with U-251, with UACC-257, in the assay on NCI-H226 and in the assay on NCI-H23 was > 10 µM (inactive) in each case. Moreover, the GI50 in the assay on NCI-H522 and in the assay with SN12C was > 10 µM (inactive) each time.

On to `COC(=O)C#CC1(O)C=CC(=O)C=C1`, for which the GI50 with M14 is 1.25 µM (inactive); with SF-268, 0.664 µM (active); with SNB-19 it was 4.63 µM (inactive); in the assay on HOP-92, 0.891 µM (active); in the assay with SK-MEL-28 it was 0.579 µM (active); in the assay on SK-MEL-5 it was 1.72 µM (inactive). For the same compound, the GI50 in the assay with Malme-3M is 2 µM (inactive); with HT-29, 0.253 µM (active); with OVCAR-4, 3.13 µM (inactive); in the assay on MCF7, 0.352 µM (active); in the assay with HCT-116, 0.256 µM (active); in the assay on SR it was 0.0519 µM (active). For the same compound, the GI50 was 0.392 µM (active) with K562; 0.571 µM (active) with ACHN; 0.841 µM (active) with U-251; 1.15 µM (inactive) in the assay on UACC-257; 5.07 µM (inactive) with NCI-H226; 1.57 µM (inactive) in the assay with NCI-H23. Moreover, the GI50 in the assay with NCI-H522 is 0.175 µM (active); in the assay with SN12C it was 0.789 µM (active).

Turning to `CCN(CC)CCN(C)c1ccc(CO)c2c1c(=O)c1ccccc1[s+]2[O-]` (stereo not given), the GI50 with M14 was 2.11 µM (inactive); with SF-268 it was 16.5 µM (inactive); in the assay on SNB-19, 13.2 µM (inactive); in the assay with HOP-92 it was 8.89 µM (inactive); in the assay with SK-MEL-28 it was 5.05 µM (inactive); with SK-MEL-5, 2.45 µM (inactive). In addition, the GI50 with Malme-3M is 11.9 µM (inactive); with HT-29, 2.11 µM (inactive); in the assay with OVCAR-4 it was 5.6 µM (inactive); in the assay with MCF7 it was 9.77 µM (inactive); in the assay on HCT-116, 1.88 µM (inactive); in the assay with SR it was 2.28 µM (inactive). Further, the GI50 with K562 was 3.83 µM (inactive); in the assay with ACHN it was 11.1 µM (inactive); in the assay with U-251 it was 1.69 µM (inactive); in the assay on UACC-257, 2 µM (inactive); with NCI-H226, 17.7 µM (inactive); in the assay on NCI-H23, 4.08 µM (inactive). Besides, the figures for the GI50 in the assay on NCI-H522 and in the assay with SN12C were 2.02 µM (inactive) and 15.2 µM (inactive), respectively.

In the case of `CN(C)C1(C(=O)O)CC1`, the GI50 in the assay on M14, with SF-268, in the assay with SNB-19, in the assay with HOP-92, with SK-MEL-28 and with SK-MEL-5 was > 100 µM (inactive) each time. Besides, the GI50 with Malme-3M, in the assay on HT-29, in the assay on OVCAR-4, in the assay with MCF7, in the assay on HCT-116 and with SR was > 100 µM (inactive) in each case. Further, the GI50 in the assay on K562, in the assay with ACHN, with U-251, in the assay on UACC-257, in the assay with NCI-H226 and with NCI-H23 was > 100 µM (inactive) each time. Besides, the GI50 in the assay on NCI-H522 and in the assay with SN12C was > 100 µM (inactive) throughout.

For `O=[N+]([O-])c1cccc2nc3ccccc3c(NCCCN3CCCCC3)c12`, the GI50 in the assay with M14 was 0.0116 µM (active); with SF-268 it was 0.0191 µM (active); with SNB-19 it was 0.0233 µM (active); in the assay with HOP-92, < 0.01 µM (active); with SK-MEL-28, 0.0417 µM (active); with SK-MEL-5, < 0.011 µM (active). Also, the GI50 in the assay on Malme-3M is 0.0164 µM (active); with HT-29, < 0.01 µM (active); in the assay on OVCAR-4, < 0.01 µM (active); in the assay on MCF7, < 0.01 µM (active); in the assay on HCT-116 it was < 0.01 µM (active); with SR it was < 0.01 µM (active). The GI50 with K562 was < 0.0123 µM (active); with ACHN, 0.0139 µM (active); in the assay on U-251 it was < 0.0135 µM (active); in the assay on UACC-257, 0.0219 µM (active); with NCI-H226 it was 0.0169 µM (active); with NCI-H23, < 0.01 µM (active). Besides, the results for the GI50 with NCI-H522 and with SN12C were < 0.01 µM (active) and < 0.0105 µM (active), respectively.

With `CCOC(=O)c1cnccc1CC1(C#N)c2ccccc2C=CN1C(=O)c1ccccc1` (stereo not given), the GI50 in the assay on M14 was 24.3 µM (inactive); in the assay with SF-268 it was 23.6 µM (inactive); in the assay with SNB-19 it was 70 µM (inactive); in the assay with HOP-92 it was 37.5 µM (inactive); with SK-MEL-28 it was 58.2 µM (inactive); in the assay with SK-MEL-5, 15.3 µM (inactive). For the same compound, the GI50 in the assay with Malme-3M is 6.17 µM (inactive); in the assay with HT-29, 12.3 µM (inactive); in the assay with OVCAR-4, 21.7 µM (inactive); in the assay on MCF7, 39.2 µM (inactive); with HCT-116 it was 29.2 µM (inactive); with SR, 26.8 µM (inactive). Also, the GI50 is 6.93 µM (inactive) with K562; 39.4 µM (inactive) in the assay with ACHN; 37.3 µM (inactive) in the assay with U-251; 34.7 µM (inactive) in the assay on UACC-257; 43.9 µM (inactive) in the assay with NCI-H226; 32.5 µM (inactive) in the assay with NCI-H23. Besides, the GI50 in the assay on NCI-H522 is 18.6 µM (inactive); in the assay on SN12C, 29 µM (inactive).

Take `N#[N+]c1cc2c(cc1Br)-c1ccccc1C2`: the GI50 in the assay on M14 was > 100 µM (inactive); in the assay with SF-268 it was > 100 µM (inactive); in the assay with SNB-19, 71.3 µM (inactive); with HOP-92, 11.9 µM (inactive); in the assay with SK-MEL-28 it was > 100 µM (inactive); in the assay on SK-MEL-5 it was 48.5 µM (inactive). For the same compound, the GI50 is 40 µM (inactive) in the assay on Malme-3M; > 100 µM (inactive) in the assay with HT-29; > 100 µM (inactive) in the assay with OVCAR-4; 45.5 µM (inactive) with MCF7; > 100 µM (inactive) in the assay on HCT-116; 0.413 µM (active) in the assay with SR. The GI50 in the assay on K562 is 8.39 µM (inactive); with ACHN, > 100 µM (inactive); in the assay with U-251, 82.2 µM (inactive); in the assay on UACC-257 it was 23.5 µM (inactive); in the assay on NCI-H226 it was 51.6 µM (inactive); with NCI-H23, > 100 µM (inactive). In addition, the GI50 is 58.2 µM (inactive) in the assay on NCI-H522 and > 100 µM (inactive) in the assay with SN12C.
